Experimental data reported in ChEMBL document CHEMBL4507276 (2021).

Columns and labels:
[1] = target: LIM domain kinase 1 (Homo sapiens) (UniProt P53667); assay: LIMK1 Invitrogen selectivity data (BI); conditions: Compound concentration 3.0 uM
[2] = target: DNA-dependent protein kinase catalytic subunit (Homo sapiens) (UniProt P78527); assay: DNA-PK Invitrogen selectivity data (BI); conditions: Compound concentration 3.0 uM
[3] = target: Mitogen-activated protein kinase kinase kinase 14 (Homo sapiens) (UniProt Q99558); assay: MAP3K14 Invitrogen selectivity data (BI); conditions: Compound concentration 3.0 uM
[4] = target: SRSF protein kinase 2 (Homo sapiens) (UniProt P78362); assay: SRPK2 Invitrogen selectivity data (BI); conditions: Compound concentration 3.0 uM
[5] = target: Serine/threonine-protein kinase Nek6 (Homo sapiens) (UniProt Q9HC98); assay: NEK6 Invitrogen selectivity data (BI); conditions: Compound concentration 3.0 uM
[6] = target: T1, 5-hydroxytryptamine receptor 1A (Homo sapiens) (UniProt P08908); assay: 5HT1A/HU Eurofins-Panlabs selectivity data (BI); conditions: Compound concentration 10.0 uM
T1 sequence (whole entry): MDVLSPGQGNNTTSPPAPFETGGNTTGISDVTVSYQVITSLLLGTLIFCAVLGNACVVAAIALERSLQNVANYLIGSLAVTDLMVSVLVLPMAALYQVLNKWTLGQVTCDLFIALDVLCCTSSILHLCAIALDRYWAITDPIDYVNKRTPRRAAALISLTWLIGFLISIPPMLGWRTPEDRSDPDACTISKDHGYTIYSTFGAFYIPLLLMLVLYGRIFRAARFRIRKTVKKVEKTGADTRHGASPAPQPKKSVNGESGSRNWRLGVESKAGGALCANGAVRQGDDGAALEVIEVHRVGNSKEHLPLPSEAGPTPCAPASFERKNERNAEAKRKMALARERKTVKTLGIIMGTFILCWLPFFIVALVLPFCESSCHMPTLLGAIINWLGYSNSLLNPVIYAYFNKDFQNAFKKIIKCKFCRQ

[7] = target: T2, Tyrosine-protein kinase JAK3 (Homo sapiens) (UniProt P52333); assay: JAK3 Invitrogen selectivity data (BI); conditions: Compound concentration 3.0 uM
T2 sequence (whole entry): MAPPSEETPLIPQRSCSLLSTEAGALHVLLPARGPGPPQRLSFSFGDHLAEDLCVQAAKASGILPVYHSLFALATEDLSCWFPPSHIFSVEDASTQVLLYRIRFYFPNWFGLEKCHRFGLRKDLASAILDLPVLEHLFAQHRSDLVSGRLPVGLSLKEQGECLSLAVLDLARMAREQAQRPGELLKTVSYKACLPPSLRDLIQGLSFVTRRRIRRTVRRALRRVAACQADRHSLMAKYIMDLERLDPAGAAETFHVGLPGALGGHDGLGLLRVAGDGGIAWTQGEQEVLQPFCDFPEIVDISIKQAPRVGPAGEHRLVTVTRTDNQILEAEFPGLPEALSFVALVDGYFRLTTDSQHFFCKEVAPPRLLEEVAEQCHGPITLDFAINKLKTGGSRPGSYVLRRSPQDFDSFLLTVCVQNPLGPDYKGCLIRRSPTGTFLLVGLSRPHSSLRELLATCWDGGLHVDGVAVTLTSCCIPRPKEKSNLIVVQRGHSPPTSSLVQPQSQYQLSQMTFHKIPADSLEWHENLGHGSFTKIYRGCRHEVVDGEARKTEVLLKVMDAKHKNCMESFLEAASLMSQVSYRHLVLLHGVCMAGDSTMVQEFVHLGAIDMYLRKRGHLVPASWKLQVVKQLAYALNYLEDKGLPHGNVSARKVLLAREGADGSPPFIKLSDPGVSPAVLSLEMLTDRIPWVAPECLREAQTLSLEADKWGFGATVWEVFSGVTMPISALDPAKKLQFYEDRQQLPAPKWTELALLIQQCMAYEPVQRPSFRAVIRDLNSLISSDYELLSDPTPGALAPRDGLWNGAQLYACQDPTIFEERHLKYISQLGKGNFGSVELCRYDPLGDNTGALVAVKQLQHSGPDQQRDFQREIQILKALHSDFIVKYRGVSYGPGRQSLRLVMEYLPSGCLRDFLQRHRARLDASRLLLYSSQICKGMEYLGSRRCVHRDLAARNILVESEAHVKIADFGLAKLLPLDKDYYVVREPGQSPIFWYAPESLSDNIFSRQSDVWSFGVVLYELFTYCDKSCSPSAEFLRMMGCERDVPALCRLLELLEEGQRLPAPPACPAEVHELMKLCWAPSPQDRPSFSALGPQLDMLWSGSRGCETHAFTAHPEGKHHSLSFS

[8] = target: Serine/threonine-protein kinase mTOR (Homo sapiens) (UniProt P42345); assay: FRAP1 (MTOR) Invitrogen selectivity data (BI); conditions: Compound concentration 3.0 uM
[9] = target: B1 bradykinin receptor (Homo sapiens) (UniProt P46663); assay: B1/H Eurofins-Panlabs selectivity data (BI); conditions: Compound concentration 10.0 uM
[10] = target: Glycine receptor subunit alpha-1 (Rattus norvegicus) (UniProt P07727); assay: GLYSTRYANTAG Cerep selectivity data (BI); conditions: filed as antagonist, Compound concentration 20.0 uM
[11] = target: Angiopoietin-1 receptor (Homo sapiens) (UniProt Q02763); assay: TEK Invitrogen selectivity data (BI); conditions: Compound concentration 3.0 uM
[12] = target: Delta-type opioid receptor (Homo sapiens) (UniProt P41143); assay: DELTA/HU Eurofins-Panlabs selectivity data (BI); conditions: Compound concentration 10.0 uM
[13] = target: Serine/threonine-protein kinase Nek7 (Homo sapiens) (UniProt Q8TDX7); assay: NEK7 Invitrogen selectivity data (BI); conditions: Compound concentration 3.0 uM
[14] = target: Fibroblast growth factor receptor 1 (Homo sapiens) (UniProt P11362); assay: FGFR1 Invitrogen selectivity data (BI); conditions: Compound concentration 3.0 uM
[15] = target: Eukaryotic elongation factor 2 kinase (Homo sapiens) (UniProt O00418); assay: EEF2K Invitrogen selectivity data (BI); conditions: Compound concentration 3.0 uM
[16] = target: Ephrin type-A receptor 7 (Homo sapiens) (UniProt Q15375); assay: EPHA7 Invitrogen selectivity data (BI); conditions: Compound concentration 3.0 uM
[17] = target: Mitogen-activated protein kinase 9 (Homo sapiens) (UniProt P45984); assay: MAPK9 Invitrogen selectivity data (BI); conditions: Compound concentration 3.0 uM
[18] = target: Protein-tyrosine kinase 6 (Homo sapiens) (UniProt Q13882); assay: PTK6 Invitrogen selectivity data (BI); conditions: Compound concentration 3.0 uM
[19] = target: T3, Dual specificity mitogen-activated protein kinase kinase 6 (Homo sapiens) (UniProt P52564); assay: MAP2K6_S_T_E Invitrogen selectivity data (BI); conditions: Compound concentration 3.0 uM
T3 sequence (whole entry): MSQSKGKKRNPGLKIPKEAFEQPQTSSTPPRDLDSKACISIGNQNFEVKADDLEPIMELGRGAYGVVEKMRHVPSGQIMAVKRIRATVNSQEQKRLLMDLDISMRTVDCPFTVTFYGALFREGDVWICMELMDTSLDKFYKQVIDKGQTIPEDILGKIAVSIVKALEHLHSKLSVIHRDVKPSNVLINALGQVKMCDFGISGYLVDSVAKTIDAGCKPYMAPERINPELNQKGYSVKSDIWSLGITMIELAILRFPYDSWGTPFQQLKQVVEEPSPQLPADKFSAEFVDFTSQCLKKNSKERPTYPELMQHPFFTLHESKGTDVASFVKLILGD

[20] = target: Serine/threonine-protein kinase 33 (Homo sapiens) (UniProt Q9BYT3); assay: STK33 Invitrogen selectivity data (BI); conditions: Compound concentration 3.0 uM

Measured: residual activity

Chain of Angiopoietin-1 receptor (Homo sapiens) (Q02763 whole entry): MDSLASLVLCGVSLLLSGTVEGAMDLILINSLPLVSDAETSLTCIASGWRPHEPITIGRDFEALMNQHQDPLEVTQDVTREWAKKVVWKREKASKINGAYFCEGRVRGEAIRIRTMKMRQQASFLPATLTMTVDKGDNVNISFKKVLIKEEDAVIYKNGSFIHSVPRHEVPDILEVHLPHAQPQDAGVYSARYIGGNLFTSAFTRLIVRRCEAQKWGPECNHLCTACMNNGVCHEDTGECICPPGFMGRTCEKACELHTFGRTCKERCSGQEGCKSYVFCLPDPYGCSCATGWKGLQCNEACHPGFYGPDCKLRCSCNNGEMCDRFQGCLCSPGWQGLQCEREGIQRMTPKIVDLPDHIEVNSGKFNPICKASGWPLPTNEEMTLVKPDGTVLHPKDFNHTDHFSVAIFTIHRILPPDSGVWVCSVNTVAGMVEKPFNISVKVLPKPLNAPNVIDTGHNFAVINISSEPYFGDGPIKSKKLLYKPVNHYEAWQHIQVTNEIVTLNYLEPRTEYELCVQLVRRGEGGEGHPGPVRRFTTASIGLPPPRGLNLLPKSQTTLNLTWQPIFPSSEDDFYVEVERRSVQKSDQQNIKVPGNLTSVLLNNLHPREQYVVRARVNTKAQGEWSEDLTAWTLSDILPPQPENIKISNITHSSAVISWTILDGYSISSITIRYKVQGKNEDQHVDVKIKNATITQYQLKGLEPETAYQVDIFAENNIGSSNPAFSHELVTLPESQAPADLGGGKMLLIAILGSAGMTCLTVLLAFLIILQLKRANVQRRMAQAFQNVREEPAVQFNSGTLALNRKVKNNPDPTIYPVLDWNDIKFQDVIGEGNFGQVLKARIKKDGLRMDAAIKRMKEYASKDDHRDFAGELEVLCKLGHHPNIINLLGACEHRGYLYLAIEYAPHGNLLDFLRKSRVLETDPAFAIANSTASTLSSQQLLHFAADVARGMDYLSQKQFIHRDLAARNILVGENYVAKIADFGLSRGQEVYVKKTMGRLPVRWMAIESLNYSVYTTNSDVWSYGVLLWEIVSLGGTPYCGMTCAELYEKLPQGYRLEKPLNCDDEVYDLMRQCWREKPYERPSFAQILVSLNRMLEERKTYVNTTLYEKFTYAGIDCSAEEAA
Chain of B1 bradykinin receptor (Homo sapiens) (P46663 whole entry): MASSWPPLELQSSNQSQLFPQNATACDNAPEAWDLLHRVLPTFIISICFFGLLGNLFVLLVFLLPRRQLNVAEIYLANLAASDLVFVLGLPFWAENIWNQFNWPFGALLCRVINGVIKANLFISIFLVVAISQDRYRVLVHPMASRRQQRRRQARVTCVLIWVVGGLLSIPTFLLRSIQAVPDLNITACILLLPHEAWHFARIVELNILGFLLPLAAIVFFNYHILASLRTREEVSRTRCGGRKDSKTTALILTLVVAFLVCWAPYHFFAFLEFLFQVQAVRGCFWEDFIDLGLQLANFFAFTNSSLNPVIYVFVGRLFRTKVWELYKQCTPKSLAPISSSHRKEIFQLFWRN
Chain of Protein-tyrosine kinase 6 (Homo sapiens) (Q13882 whole entry, looked up): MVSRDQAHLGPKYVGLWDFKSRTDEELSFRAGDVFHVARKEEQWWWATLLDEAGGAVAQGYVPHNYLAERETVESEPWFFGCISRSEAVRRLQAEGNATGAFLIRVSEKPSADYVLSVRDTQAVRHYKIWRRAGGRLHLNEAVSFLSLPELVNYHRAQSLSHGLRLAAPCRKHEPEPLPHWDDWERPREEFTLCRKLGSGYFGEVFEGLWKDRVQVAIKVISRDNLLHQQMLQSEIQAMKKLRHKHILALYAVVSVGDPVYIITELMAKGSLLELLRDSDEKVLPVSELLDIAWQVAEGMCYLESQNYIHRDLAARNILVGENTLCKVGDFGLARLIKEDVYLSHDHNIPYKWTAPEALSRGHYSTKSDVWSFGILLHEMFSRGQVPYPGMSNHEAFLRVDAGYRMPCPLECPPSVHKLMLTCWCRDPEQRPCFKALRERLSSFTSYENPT
Chain of Mitogen-activated protein kinase kinase kinase 14 (Homo sapiens) (Q99558 whole entry, looked up): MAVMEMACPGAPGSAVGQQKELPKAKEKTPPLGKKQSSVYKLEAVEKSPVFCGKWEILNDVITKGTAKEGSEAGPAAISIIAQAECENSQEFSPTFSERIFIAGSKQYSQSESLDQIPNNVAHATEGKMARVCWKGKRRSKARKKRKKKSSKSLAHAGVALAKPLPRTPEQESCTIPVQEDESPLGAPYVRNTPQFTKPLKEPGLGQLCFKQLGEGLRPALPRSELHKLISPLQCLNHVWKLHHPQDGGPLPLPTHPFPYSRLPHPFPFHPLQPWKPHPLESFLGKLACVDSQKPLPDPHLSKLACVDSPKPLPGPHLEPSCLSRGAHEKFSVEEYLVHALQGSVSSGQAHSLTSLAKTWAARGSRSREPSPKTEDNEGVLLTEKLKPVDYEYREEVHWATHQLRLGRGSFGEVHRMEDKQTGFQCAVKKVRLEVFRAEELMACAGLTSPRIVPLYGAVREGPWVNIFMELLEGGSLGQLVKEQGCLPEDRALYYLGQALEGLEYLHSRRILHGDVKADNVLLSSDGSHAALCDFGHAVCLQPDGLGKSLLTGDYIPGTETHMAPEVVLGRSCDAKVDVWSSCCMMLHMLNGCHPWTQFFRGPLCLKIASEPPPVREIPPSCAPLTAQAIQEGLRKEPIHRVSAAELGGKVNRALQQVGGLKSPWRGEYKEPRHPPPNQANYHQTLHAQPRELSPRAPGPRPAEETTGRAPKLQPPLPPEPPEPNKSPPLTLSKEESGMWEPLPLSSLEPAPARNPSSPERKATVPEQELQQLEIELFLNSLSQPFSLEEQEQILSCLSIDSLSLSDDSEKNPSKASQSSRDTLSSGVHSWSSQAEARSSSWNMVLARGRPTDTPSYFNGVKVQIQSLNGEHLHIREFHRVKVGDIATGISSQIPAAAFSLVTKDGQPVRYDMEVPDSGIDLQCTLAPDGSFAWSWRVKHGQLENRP
Chain of LIM domain kinase 1 (Homo sapiens) (P53667 whole entry, looked up, the tested form may be a part): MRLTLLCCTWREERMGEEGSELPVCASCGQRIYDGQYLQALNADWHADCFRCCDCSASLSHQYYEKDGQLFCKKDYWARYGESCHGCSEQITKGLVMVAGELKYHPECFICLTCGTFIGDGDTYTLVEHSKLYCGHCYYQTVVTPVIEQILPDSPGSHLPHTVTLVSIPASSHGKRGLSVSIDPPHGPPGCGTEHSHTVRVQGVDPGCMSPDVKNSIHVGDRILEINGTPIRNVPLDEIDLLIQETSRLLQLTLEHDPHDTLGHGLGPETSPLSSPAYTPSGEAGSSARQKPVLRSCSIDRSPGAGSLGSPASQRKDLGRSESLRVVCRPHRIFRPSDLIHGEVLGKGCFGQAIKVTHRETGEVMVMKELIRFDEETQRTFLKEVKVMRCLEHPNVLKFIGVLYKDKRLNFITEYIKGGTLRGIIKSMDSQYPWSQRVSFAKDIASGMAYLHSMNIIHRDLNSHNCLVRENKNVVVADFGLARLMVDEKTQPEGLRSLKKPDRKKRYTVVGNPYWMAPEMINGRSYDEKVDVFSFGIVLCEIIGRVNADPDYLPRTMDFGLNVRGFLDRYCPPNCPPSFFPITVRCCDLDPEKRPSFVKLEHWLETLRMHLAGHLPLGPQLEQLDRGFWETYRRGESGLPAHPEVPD
Chain of Eukaryotic elongation factor 2 kinase (Homo sapiens) (O00418 whole entry): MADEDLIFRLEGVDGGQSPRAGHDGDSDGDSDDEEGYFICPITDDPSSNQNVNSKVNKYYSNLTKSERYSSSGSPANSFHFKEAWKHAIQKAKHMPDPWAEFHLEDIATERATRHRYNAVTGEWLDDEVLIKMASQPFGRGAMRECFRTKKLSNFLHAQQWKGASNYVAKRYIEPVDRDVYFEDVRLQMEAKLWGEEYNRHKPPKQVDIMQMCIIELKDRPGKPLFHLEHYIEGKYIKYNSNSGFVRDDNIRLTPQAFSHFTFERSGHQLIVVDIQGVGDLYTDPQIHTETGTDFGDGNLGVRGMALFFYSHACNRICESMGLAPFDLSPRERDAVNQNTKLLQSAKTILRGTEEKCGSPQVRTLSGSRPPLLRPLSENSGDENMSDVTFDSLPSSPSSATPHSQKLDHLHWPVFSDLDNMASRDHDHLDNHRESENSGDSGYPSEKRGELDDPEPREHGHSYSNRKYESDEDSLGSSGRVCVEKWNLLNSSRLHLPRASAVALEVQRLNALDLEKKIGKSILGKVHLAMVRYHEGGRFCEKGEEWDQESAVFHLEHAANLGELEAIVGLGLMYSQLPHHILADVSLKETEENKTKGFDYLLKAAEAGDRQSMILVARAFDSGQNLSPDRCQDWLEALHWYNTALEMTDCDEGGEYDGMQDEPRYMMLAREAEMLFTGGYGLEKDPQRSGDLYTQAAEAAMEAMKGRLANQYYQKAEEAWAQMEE
Chain of Delta-type opioid receptor (Homo sapiens) (P41143 whole entry): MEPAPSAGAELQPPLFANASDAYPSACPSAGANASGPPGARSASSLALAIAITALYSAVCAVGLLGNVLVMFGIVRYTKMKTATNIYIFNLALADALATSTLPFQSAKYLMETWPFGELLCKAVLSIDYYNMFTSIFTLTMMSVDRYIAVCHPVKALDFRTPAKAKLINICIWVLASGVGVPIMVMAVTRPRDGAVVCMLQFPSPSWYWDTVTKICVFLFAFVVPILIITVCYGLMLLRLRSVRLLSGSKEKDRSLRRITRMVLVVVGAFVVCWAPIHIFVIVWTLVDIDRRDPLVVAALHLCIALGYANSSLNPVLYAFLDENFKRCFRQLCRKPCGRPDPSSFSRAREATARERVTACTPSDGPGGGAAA
Chain of Serine/threonine-protein kinase Nek6 (Homo sapiens) (Q9HC98 whole entry): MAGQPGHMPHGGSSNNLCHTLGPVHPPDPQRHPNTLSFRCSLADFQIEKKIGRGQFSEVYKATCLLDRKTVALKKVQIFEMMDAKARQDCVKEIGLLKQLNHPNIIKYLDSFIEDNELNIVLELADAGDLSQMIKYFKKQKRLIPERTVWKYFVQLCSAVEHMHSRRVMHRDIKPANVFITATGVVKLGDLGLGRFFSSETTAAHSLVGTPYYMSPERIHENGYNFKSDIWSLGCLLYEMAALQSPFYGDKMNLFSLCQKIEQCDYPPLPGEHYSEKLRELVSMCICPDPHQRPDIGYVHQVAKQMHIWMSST

CN(C)C(=O)Cn1cc(-c2nc([C@@](C)(c3ccc(-c4cnc(N)nc4)cc3)C3CC3)no2)cn1 [BI 665915]
inactive: [1] 96% | [2] 91% | [3] 98% | [4] 98% | [5] 96% | [6] 127% | [7] 96.5% | [8] 104% | [9] 112% | [10] 118% | [11] 97% | [12] 96% | [13] 99% | [14] 100% | [15] 93.5% | [16] 78% | [17] 101% | [18] 99.5% | [19] 100% | [20] 101%
